Source: PubChem BioAssay (NCI)
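Where inhibition never reached the appropriate level, the endpoint shown equals the highest concentration tested. Otherwise, values were interpolated linearly from a five-concentration, 48-hour dose response in 96-well plates. TGI: concentration producing complete growth inhibition.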

Legend:
Assay in all cases: inhibition of tumour cell growth, NCI panel, 48 h
[1] = test system: IGROV1 ovarian
[2] = test system: A498 renal
[3] = test system: PC-3 prostate
[4] = test system: MALME-3M melanoma
[5] = test system: HS 578T breast
[6] = test system: NCI-H226 lung
[7] = test system: UACC-62 melanoma
[8] = test system: HOP-92 NSCLC
[9] = test system: HCT-116 colon
[10] = test system: OVCAR-3 ovarian
[11] = test system: LOX IMVI melanoma
[12] = test system: RXF 393 renal
[13] = test system: TK-10 renal
[14] = test system: SR leukemia
[15] = test system: MDA-N
[16] = test system: COLO 205 colon
[17] = test system: KM12 colon
[18] = test system: SN12C renal
[19] = test system: SK-OV-3 ovarian
[20] = test system: CAKI-1 renal
[21] = test system: HCT-15 colon
[22] = test system: SK-MEL-5 melanoma
[23] = test system: NCI-H522 lung
[24] = test system: UO-31 renal
[25] = test system: MOLT-4 leukemia
[26] = test system: UACC-257 melanoma
[27] = test system: M14 melanoma
[28] = test system: MDA-MB-435
[29] = test system: 786-0 renal
[30] = test system: BT-549 breast
[31] = test system: ACHN renal
[32] = test system: CCRF-CEM leukemia
[33] = test system: K-562 leukemia
[34] = test system: DU-145 prostate
[35] = test system: HT29 colon
[36] = test system: NCI-H460 lung
[37] = test system: SF-539 CNS
[38] = test system: HL-60(TB) leukemia
[39] = test system: RPMI-8226 leukemia
[40] = test system: HCC-2998 colon
[41] = test system: MCF7 breast
[42] = test system: SK-MEL-2 melanoma
[43] = test system: SNB-19 CNS
[44] = test system: NCI/ADR-RES ovarian
[45] = test system: NCI-H23 lung
[46] = test system: SW-620 colon
[47] = test system: SF-268 CNS
[48] = test system: OVCAR-8 ovarian
[49] = test system: SK-MEL-28 melanoma
[50] = test system: SNB-75 CNS
[51] = test system: MDA-MB-231 breast
[52] = test system: A549 NSCLC
[53] = test system: T-47D breast
[54] = test system: EKVX NSCLC
[55] = test system: SF-295 CNS
[56] = test system: HOP-62 NSCLC
[57] = test system: OVCAR-5 ovarian
[58] = test system: OVCAR-4 ovarian
[59] = test system: DMS 273 small cell lung
[60] = test system: DMS 114 small cell lung
[61] = test system: XF 498 CNS
[62] = test system: LXFL 529 NSCLC
[63] = test system: SNB-78 CNS
[64] = test system: DLD-1 colon
[65] = test system: HOP-18 NSCLC
[66] = test system: KM20L2 colon
[67] = test system: U251 CNS
[68] = test system: M19-MEL melanoma

Measured: TGI

CCOc1cc(NC(C)=O)ccc1C(=O)NN1C(=O)CSC1c1ccc(O)c(OC)c1 (stereo unspecified)
98.6 µM: [30]
29.5 µM: [24]
39.3 µM: [13]
> 100 µM: [1] | [2] | [3] | [4] | [5] | [6] | [7] | [8] | [9] | [10] | [11] | [12] | [14] | [15] | [16] | [17] | [18] | [19] | [20] | [21] | [22] | [23] | [25] | [26] | [27] | [28] | [29] | [31] | [32] | [33] | [34] | [35] | [36] | [37] | [38] | [39] | [40] | [41] | [42] | [43] | [44] | [45] | [46] | [47] | [48] | [49] | [50] | [51] | [52] | [53] | [54] | [55] | [56] | [57] | [58]

C/C(CN1C(=O)c2ccccc2C1=O)=N\NS(=O)(=O)c1ccc(F)cc1
> 100 µM: [1] | [2] | [4] | [6] | [7] | [9] | [10] | [11] | [13] | [14] | [16] | [17] | [59] | [18] | [19] | [60] | [20] | [21] | [61] | [22] | [23] | [24] | [25] | [26] | [27] | [29] | [31] | [62] | [32] | [33] | [63] | [35] | [36] | [37] | [64] | [38] | [39] | [40] | [65] | [42] | [43] | [66] | [45] | [46] | [47] | [48] | [67] | [49] | [50] | [52] | [54] | [55] | [56] | [57] | [58]

CC(C)Cc1cccc(C(C)C)c1NC(=O)CCC(=O)N/N=C1\C(=N/NC(=O)CCC(=O)Nc2c(C(C)C)cccc2C(C)C)C(c2ccc3c(c2)OCO3)Oc2ccccc21 (stereo unspecified)
> 100 µM: [1] | [2] | [6] | [7] | [8] | [9] | [11] | [12] | [13] | [14] | [16] | [17] | [59] | [18] | [19] | [60] | [20] | [21] | [61] | [22] | [23] | [24] | [25] | [26] | [27] | [31] | [62] | [32] | [33] | [63] | [35] | [36] | [37] | [64] | [38] | [39] | [40] | [42] | [43] | [66] | [68] | [45] | [46] | [47] | [48] | [67] | [49] | [50] | [52] | [54] | [55] | [56] | [57] | [58]

CCCCCn1cnc2c1S(=O)(=O)N(C)C(NC(=O)c1ccccc1)=N2
> 100 µM: [1] | [2] | [6] | [7] | [8] | [9] | [10] | [11] | [13] | [14] | [16] | [17] | [59] | [18] | [19] | [60] | [20] | [21] | [22] | [23] | [24] | [25] | [26] | [29] | [31] | [62] | [32] | [33] | [63] | [35] | [36] | [37] | [64] | [38] | [39] | [40] | [42] | [43] | [66] | [68] | [45] | [46] | [47] | [48] | [67] | [49] | [50] | [52] | [54] | [55] | [56] | [58]

O=C(O)Cc1ccc2c(c1O)C(=O)c1c(ccc(CC(=O)O)c1O)C2=O
> 100 µM: [1] | [2] | [4] | [6] | [8] | [9] | [10] | [11] | [13] | [14] | [16] | [17] | [59] | [18] | [19] | [60] | [20] | [21] | [61] | [22] | [23] | [25] | [26] | [27] | [29] | [31] | [62] | [32] | [33] | [63] | [35] | [36] | [37] | [64] | [38] | [39] | [40] | [65] | [42] | [43] | [66] | [68] | [45] | [46] | [47] | [48] | [67] | [49] | [50] | [52] | [54] | [55] | [56] | [57] | [58]

CCOC(=O)N1CCC(=O)C[C@@H]1C/C=C/P1(=O)O[C@H](c2ccccc2)C(C)N1C(C)C (stereo partly specified)
> 100 µM: [1] | [4] | [6] | [7] | [8] | [9] | [10] | [12] | [13] | [14] | [17] | [59] | [18] | [19] | [60] | [20] | [21] | [22] | [23] | [24] | [25] | [26] | [29] | [31] | [62] | [33] | [63] | [35] | [37] | [39] | [40] | [42] | [43] | [66] | [68] | [45] | [46] | [47] | [48] | [67] | [49] | [50] | [52] | [54] | [55] | [57] | [58]

Nc1ccc(C(=O)NN2C(=O)C(Cl)C2c2cccc([N+](=O)[O-])c2)cc1 (stereo unspecified)
37.5 µM: [25]
35.7 µM: [42]
32.1 µM: [43]
35.1 µM: [37]
33.4 µM: [58]
33.3 µM: [19]
41.8 µM: [10]
27.3 µM: [67]
34.2 µM: [9]
30.4 µM: [32]
38.5 µM: [49]
36.8 µM: [6]
39.3 µM: [48]
35.6 µM: [4] | [50]
34.1 µM: [68]
30.6 µM: [17]
25.1 µM: [11] | [23]
34.5 µM: [45]
47.7 µM: [54]
33.1 µM: [29]
37.9 µM: [35]
51 µM: [26]
41.4 µM: [38]
32.5 µM: [59]
38.6 µM: [47]
34.3 µM: [22]
43.1 µM: [55]
31.3 µM: [24]
41.6 µM: [56]
36 µM: [20]
40.7 µM: [8]
26.5 µM: [61]
50.9 µM: [31]
36.9 µM: [18]
47.5 µM: [33]
35.3 µM: [13]
37.7 µM: [57]
71.2 µM: [39]
45.4 µM: [2]
37.1 µM: [7]
39.5 µM: [40]
39.6 µM: [27]
35 µM: [16]
40 µM: [46]
45.7 µM: [21]
34.7 µM: [64]
36.5 µM: [60]
43.6 µM: [66]
> 100 µM: [63] | [36] | [52]
34.9 µM: [62]
30.8 µM: [1]
